Measurements published in US7557137B2, “Gamma-lactams as beta-secretase inhibitors” (Bristol-Myers Squibb Company, priority 2002, dated 2009).

molecular target: T1, BACE enzyme (Homo sapiens, UniProt P56817); experiment: BACE enzyme inhibition, fluorescence-quenched peptide substrate MCA-EVNLDAEFK(DNP); format: biochemical; details: 50 mM acetate, pH 4.5, 0.25 mg/ml bovine serum albumin, 2.5% DMSO; read-out: Activity Rating (based on IC50 values)
T1 construct: the catalytic domain, appended by a C-terminal poly-histidine tag, is secreted out into the cellular medium; made in house; host or cells: Drosophila melanogaster S2 cells
T1 sequence (P56817 75-416 limits assumed): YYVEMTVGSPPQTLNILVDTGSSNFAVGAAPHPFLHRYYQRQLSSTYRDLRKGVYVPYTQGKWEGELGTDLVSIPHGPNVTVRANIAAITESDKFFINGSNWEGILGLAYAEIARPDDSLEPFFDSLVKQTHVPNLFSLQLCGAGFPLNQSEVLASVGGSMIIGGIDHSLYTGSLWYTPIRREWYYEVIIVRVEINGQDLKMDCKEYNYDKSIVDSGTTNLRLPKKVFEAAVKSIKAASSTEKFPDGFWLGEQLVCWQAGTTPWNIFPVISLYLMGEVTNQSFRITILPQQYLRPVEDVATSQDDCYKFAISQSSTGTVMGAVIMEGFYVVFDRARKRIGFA
Source text: There are a number of methods by which inhibitors of the BACE enzyme can be identified experimentally. The enzyme can be obtained from membrane samples from natural tissues or cultured cells or can be expressed recombinantly in a host cell by well known methods of molecular biology. […] The enzymatic activity and/or ligand binding capability of the enzyme can be assessed within these membrane samples, or the enzyme can be purified to varying extents. As an illustrative example, the nucleic acid sequence encoding the pro and catalytic domains of human BACE can be appended on the 5′ end with an untranslated and signal sequence from the gene for acetylcholinesterase, and on the 3′ end with a sequence encoding a poly-histidine tag. This cDNA can then be expressed in Drosophila melanogaster S2 cells in which the signal and pro sequences of the transcribed/translated protein are removed by cellular proteases and the catalytic domain, appended by a C-terminal poly-histidine tag, is secreted out into the cellular medium. The enzyme can then be purified from the culture medium by nickel affinity chromatography by methods well known to those trained in the art [Mallender, W. et al., (2001) “Characterization of recombinant, soluble beta-secretase from an insect cell expression system.” Mol. Pharmacol. 59: 619-626]. Similar strategies for expressing and purifying various forms of BACE in bacterial, mammalian and other cell types would be known to one skilled in the art.
The enzyme thus obtained can be put in contact with a test compound and with an appropriate substrate on which enzyme-mediated peptide bond hydrolysis is known to occur. The ability of the test compound to diminish the rate of substrate hydrolysis can then be quantified as a measure of inhibition potency. Appropriate substrates can be prepared as peptides, proteins, or chemically modified versions of peptides or proteins, that contain an amino acid sequence that is recognized as a substrate by the enzyme. For example, the amino acid sequence immediately proximal to the beta-cleavage site within Swedish mutant APP is known to be recognized as a substrate for BACE. […] Longer peptide and protein substrates can also be designed by extending the amino acid composition on the N-terminal, the C-terminal, or both ends.
In one known application of (SEQ. ID. NO.:1), X is a 7-methoxycoumarin-4-acetyl (MCA) group and Y is a dinitrophenyl (DNP) group [Marcinkeviciene, J. et al., (2001) “Mechanism of inhibition of beta-site amyloid precursor protein-cleaving enzyme (BACE) by a statine-based peptide.” J. Biol. Chem. 276: 23790-23794]. When this peptide is intact, the natural fluorescence of the MCA group is quenched by its proximity to the DNP group. […] The increase in fluorescence intensity that accompanies enzyme-mediated peptide hydrolysis can be measured as a function of time to quantify the velocity of enzyme catalysis. In a typical assay system the BACE enzyme is diluted into a buffer system composed of 50 mM acetate, pH 4.5 containing 0.25 mg/ml bovine serum albumin. To this is added neat dimethyl sulfoxide (DMSO) or a stock solution of test compound dissolved in DMSO so that the final amount of DMSO in all assays is held constant at 2.5% (v:v). The enzymatic reaction is then initiated by addition of a stock solution of the substrate peptide to a known concentration. The fluorescence increase with time after substrate addition is monitored with an appropriate fluorescence detection instrument, such as a microplate reader or spectrofluorometer. The slope of the signal vs. time plot (progress curve) for samples to which only DMSO was added is taken as a measure of the uninhibited velocity and represents 100% enzymatic activity.

Compound	IC50 [nM]
CC[C@H](C)[C@@]1(NC(C)=O)CCN([C@@H](CCc2ccccc2)C(=O)N[C@@H](Cc2ccccc2)[C@H](O)CNCc2cc(F)cc(F)c2)C1=O [Example 33, (2S)-2-(3(S)-acetylamino-3-((S)-sec-butyl)-2-oxo-pyrrolidin-1-yl)-N-[(1S,2R)-1-benzyl-2-hydroxy-3-(3,5-difluorobenzylamino)-propyl]-4-phenyl-butyramide]	< 100
CCCNC(=O)N[C@]1([C@@H](C)CC)CCN([C@@H](CCc2ccccc2)C(=O)N[C@@H](Cc2ccccc2)[C@H](O)CNCc2cccc(OC)c2)C1=O [Example 17, (2S)-2-(3(S)-propylureido-3-((S)-sec-butyl)-2-oxo-pyrrolidin-1-yl)-N-[(1S,2R)-1-benzyl-2-hydroxy-3-(3-methoxy-benzylamino)-propyl]-4-phenyl-butyramide]	100 to 1000
CCCS(=O)(=O)N[C@]1(C(C)CC)CCN([C@@H](CCc2ccccc2)C(=O)N[C@@H](Cc2ccccc2)C(O)CNCc2cccc(OC)c2)C1=O (stereo partly drawn) [Example 27, (2S)-2-(3(S)-(propylsulfonamido)-3-((S)-sec-butyl)-2-oxo-pyrrolidin-1-yl)-N-[(1S)-1-benzyl-2-hydroxy-3-(3-methoxy-benzylamino)-propyl]-4-phenyl-butyramide]	1000 to 50000
CC[C@H](C)[C@@]1(NC(=O)COC)CCN([C@@H](CCc2ccccc2)C(=O)N[C@@H](CC(C)C)[C@H](O)CNCc2cccc(OC)c2)C1=O [Example 5, (2S)-2-(3-((S)-sec-butyl)-3-(2-methoxy-acetylamino)-2-oxo-pyrrolidin-1-yl)-N—(S)-{1(R)-[1-hydroxy-2-(3-methoxy-benzylamino)-ethyl]-3-methyl-butyl}-4-phenyl-butyramide]	1000 to 50000
CCC(C)[C@@]1(NC(=O)CCc2cnc[nH]2)CCN([C@@H](CCc2ccccc2)C(=O)N[C@@H](Cc2ccccc2)[C@@H](O)CNCc2cccc(OC)c2)C1=O (single isomer, unassigned) [Example 21]	100 to 1000
CC[C@H](C)[C@@]1(NC(=O)COC)CCN([C@@H](CCc2ccccc2)C(=O)N[C@@H](Cc2ccccc2)[C@H](O)CNCc2cccc(OC)c2)C1=O [Example 9, (2S)-2-(3(S)-(2-methoxy-acetylamino)-3-((S)-sec-butyl)-2-oxo-pyrrolidin-1-yl)-N-[(1S,2R)-1-benzyl-2-hydroxy-3-(3-methoxy-benzylamino)-propyl]-4-phenyl-butyramide]	< 100
CCOC(=O)N[C@]1(C(C)CC)CCN([C@@H](CCc2ccccc2)C(=O)N[C@@H](Cc2ccccc2)[C@H](O)CNCc2cccc(OC)c2)C1=O (single isomer, unassigned) [Example 14]	< 100
CCC(C)[C@@]1(NC(=O)OC)CCN([C@@H](CCc2ccccc2)C(=O)N[C@@H](Cc2ccccc2)[C@@H](O)CNCc2cccc(OC)c2)C1=O (single isomer, unassigned) [Example 15]	1000 to 50000
C#CCNC[C@@H](O)[C@H](Cc1ccccc1)NC(=O)[C@H](CCc1ccccc1)N1CC[C@](NC(C)=O)([C@@H](C)CC)C1=O [Example 30, (2S)-2-(3(S)-acetylamino-3-((S)-sec-butyl)-2-oxo-pyrrolidin-1-yl)-N-[(1S,2R)-1-benzyl-2-hydroxy-3-(propargylamino)-propyl]-4-phenyl-butyramide]	< 100
CC(=O)N[C@]1(CC(C)C)CCN([C@@H](CCc2ccccc2)C(=O)N[C@@H](Cc2ccccc2)[C@H](O)CNCCC#N)C1=O [Example 37, 2-(3(S)-Acetylamino-3(S)-isobutyl-2-oxo-pyrrolidin-1-yl)-N-[(1S,2R)-1-benzyl-3-(2-cyano-ethylamino)-2-hydroxy-propyl]-4-phenyl-butyramide]	< 100
COc1cccc(CNC[C@@H](O)[C@H](Cc2ccccc2)NC(=O)[C@H](CCc2ccccc2)N2CC[C@](CC3CC3)(NC(C)=O)C2=O)c1 [Example 7, (2S)-2-(3(S)-Acetylamino-3(-cyclopropylmethyl)-2-oxo-pyrrolidin-1-yl)-N-[(1S,2R)-1-benzyl-2-hydroxy-3-(3-methoxy-benzylamino)-propyl]-4-phenyl-butyramide]	< 100
CCC(=O)N[C@]1([C@@H](C)CC)CCN([C@@H](CCc2ccccc2)C(=O)N[C@@H](Cc2ccccc2)[C@H](O)CNCc2cccc(OC)c2)C1=O [Example 10, (2S)-2-(3(S)-propionylamino-3-((S)-sec-butyl)-2-oxo-pyrrolidin-1-yl)-N-[(1S,2R)-1-benzyl-2-hydroxy-3-(3-methoxy-benzylamino)-propyl]-4-phenyl-butyramide]	< 100
CC[C@H](C)[C@@]1(NC(C)=O)CCN([C@@H](CCc2ccccc2)C(=O)N[C@@H](Cc2ccccc2)[C@H](O)CNCC2CC2)C1=O [Example 31, (2S)-2-(3(S)-acetylamino-3-((S)-sec-butyl)-2-oxo-pyrrolidin-1-yl)-N-[(1S,2R)-1-benzyl-2-hydroxy-3-(cyclopropylmethyl)amino-propyl]-4-phenyl-butyramide]	100 to 1000
COc1cccc(CNC[C@@H](O)[C@H](Cc2cc(F)cc(F)c2)NC(=O)[C@H](CCc2cccc(F)c2)N2CCC(CC3CC3)(NC(C)=O)C2=O)c1 (stereo in doubt) [Example 40, (2S)-2-(3(S)-acetylamino-3-(cyclopropylmethyl)-2-oxo-pyrrolidin-1-yl)-N-[(1S,2R)-1-(3,5-difluorobenzyl)-2-hydroxy-3-(3-methoxybenzylamino)-propyl]-4-(3-fluorophenyl)-butyramide]	< 100
CCC(C)[C@@]1(NS(=O)(=O)CC)CCN([C@@H](CCc2ccccc2)C(=O)N[C@@H](Cc2ccccc2)C(O)CNCc2cccc(OC)c2)C1=O (stereo partly drawn) [Example 26, (2S)-2-(3(S)-(ethylsulfonamido)-3-((S)-sec-butyl)-2-oxo-pyrrolidin-1-yl)-N-[(1S)-1-benzyl-2-hydroxy-3-(3-methoxy-benzylamino)-propyl]-4-phenyl-butyramide]	1000 to 50000
CC[C@H](C)[C@@]1(NC(=O)CCc2cnc[nH]2)CCN([C@@H](CCc2ccccc2)C(=O)N[C@@H](Cc2ccccc2)[C@H](O)CNCc2cccc(OC)c2)C1=O [Example 20, (2S)-2-(3(S)-(3-3H-imidazol-4-yl-propionylamino)-3-((S)-sec-butyl)-2-oxo-pyrrolidin-1-yl)-N-[(1S,2R)-1-benzyl-2-hydroxy-3-(3-methoxy-benzylamino)-propyl]-4-phenyl-butyramide]	100 to 1000
CCC(C)[C@@]1(NC(=O)CN)CCN([C@@H](CCc2ccccc2)C(=O)N[C@@H](Cc2ccccc2)[C@@H](O)CNCc2cccc(OC)c2)C1=O (single isomer, unassigned) [Example 23]	1000 to 50000
COc1cccc(CNC[C@@H](O)[C@H](Cc2cc(F)cc(F)c2)NC(=O)[C@H](CCc2ccccc2)N2CC[C@](NC(C)=O)(C(C)C)C2=O)c1 [Example 1, (2S)-2-(3-Acetylamino-3-isopropyl-2-oxo-pyrrolidin-1-yl)-N-[(1S,2R)-1-(3,5-difluoro-benzyl)-2-hydroxy-3-(3-methoxy-benzylamino)-propyl]-4-phenyl-butyramide]	< 100
CC[C@H](C)[C@@]1(NC(C)=O)CCN([C@@H](CCc2ccccc2)C(=O)N[C@@H](Cc2ccccc2F)[C@H](O)CNCc2cccc(Cl)c2)C1=O [Example 12, (2S)-2-(3(S)-acetylamino-3-((S)-sec-butyl)-2-oxo-pyrrolidin-1-yl)-N-[(1S,2R)-1-(2-fluorobenzyl)-2-hydroxy-3-(3-chloro-benzylamino)-propyl]-4-phenyl-butyramide]	100 to 1000
COc1cccc(CNC[C@@H](O)[C@H](Cc2ccccc2)NC(=O)[C@H](CCc2ccccc2)N2CCC(CC(C)C)(NC(C)=O)C2=O)c1 (stereo in doubt) [Example 28, (2S)-2-(3(S)-acetylamino-3-(isobutyl)-2-oxo-pyrrolidin-1-yl)-N-[(1S,2R)-1-benzyl-2-hydroxy-3-(3-methoxy-benzylamino)-propyl]-4-phenyl-butyramide]	< 100
